Source: patent US9682954B2, “Phenanthridine derivatives, preparation methods and uses thereof” (Kunming Institute of Botany, The Chinese Academy of Sciences, priority 2013, dated 2017)
Like-named read-outs stand apart in the source and are kept apart here.

Key:
Wnt signaling pathway = assay: Activity assay of the reporter gene (Wnt signaling pathway activation, Wnt3a conditioned medium); assay type: cell-based; conditions: for activation of the reporter gene systems of classical Wnt signaling pathway: in the way of depending on Wnt3a receptors; for Concentration of compounds for doubly synergetic activating Wnt reporter gene: with Wnt3a conditioned medium
Description: After 6 hours, the cells are collected and activities of the report genes are determined.
Activity Assay of the Reporter Gene
HEK293T, HCT116, SW480 or NIH3T3 cells used for activity assay of the reporter gene were inoculated into 24-wells plates respectively 24 hours before transfection then transfected following the above mentioned reference method. The amount of the plasmids used for Transfection was: 20 ng of TOPFlash, NFAT-Luc, or SRF-Luc, and 25 ng of EGFP-C1 (HEK293T); 25 ng of LEF-Luc, 75 ng of LEF1, and 25 ng of EGFP-C1 (NIH3T3); 100 ng of TOPFlash or Fopfllash and 100 ng of EGFP-C1 (HCT116 and SW480). The cells were transfected with other plasmids following experimental requirements, LacZs were added to meet a total content of 250 ng (in RNAi and plasmid co-transfection experiments, 1 μl of siRNA was added when every 100 ng/well of the plasmid was transfected). Wnt3a conditioned medium was added 18 hours after transfection to stimulate the cells for 6-8 hours, the cells were lysed using Boehringer Mannheim Luci-ferase Assay Kit (200 μl/well). Intensity of GFP proteins in cell lysates were determined as internal standards of expression quantity of the cells using fluorescence meter FL600 (BIO-TEK Inc. Winooski, Vt.), and then 20 μl of luciferase substrates were added. Luciferase activity was determined with Micro Lumate Plus (Perkin Elmer Inc. Wellesley, Mass.) luminometer. Finally, the luciferase activity was homogenized using activity of GFP.

in vitro = conditions: human
Description: (§1) (1) Toxicity Experiment of the Compound on Huh7.5:
(§2) 100 μL of Huh7.5 cells (1×10^5/ml) was inoculated in 96-wells plates and incubated in an incubator at 37° C. under 5% of CO2 and saturated humidity for 24 hrs. Then different concentration of the compound of the present invention and positive control (VX-950, telaprevir) were added respectively and incubated for a further 72 hrs. 10 μL of MTT (5 mg/mL) was added per well and incubated for another 4 hrs. After the cells were lysed with DMSO, OD570-630 […] was determined on ELIASA. In comparison with OD of the control group, inhibitory rate of each concentration on cell toxicity was calculated, and half toxic concentration of the compound was calculated with Reed-Muench method.

HCV = assay: microbe, parasite or virus in culture; assay type: cell-based, Hepatitis C Virus (HCV); conditions: Huh7.5 cells infected with HCV, intracellular HCV RNA by qRT-PCR, Reed-Muench method
Description: (2) Anti-HCV Activity of the Compound in Cells:
The total RNA was extracted from the cells. The intracellular content of HCV and RNA of internal control gene GAPDH were determined by real-time fluorescence qRT-PCR.

Huh7.5 cells = assay: in vitro
Description: as §1, §2

[1] = Hepatitis C virus, Huh7.5, 72 h

SMILES | CC50 at 72 h (in vitro) [µM] | EC50 (HCV; [1]) [µM] | other results
CCc1cccc2c1N(C)Cc1cc3c(cc1-2)OCO3 [Compound 9, 4-ethyl-5-methyl-5,6-dihydro-[1,3]dioxolo[4,5-j]phenanthridine] | – | – | activation of the reporter gene systems of classical Wnt signaling pathway (Wnt signaling pathway): activate the reporter gene systems of classical Wnt signaling pathway; Concentration of compounds for doubly synergetic activating Wnt reporter gene (Wnt signaling pathway): 3.75 µM
CCc1cccc2c1N(C)Cc1cc(O)c(O)cc1-2 [Compound 10, 4-ethyl-5-methyl-5,6-dihydro-phenanthridine-8,9-diol] | 61.3 ± 8.4 | > 11.1 | –
CCc1cccc2c1N(C)Cc1cc(OC)c(OC)cc1-2 [Compound 10a, 4-ethyl-5-methyl-8,9-dimethoxy-5,6-dihydro-phenanthridine] | > 100 | < 0.41 | –
CCOc1cc2c(cc1OCC)-c1cccc(CC)c1N(C)C2 [Compound 10b, 4-ethyl-5-methyl-8,9-diethyoxy-5,6-dihydro-phenanthridine] | – | – | CC50 (Huh7.5 cells): > 100 µM; EC50 (HCV; 72 hrs, read-out: EC50): 1.63 ± 1.22 µM
C=CCOc1cc2c(cc1OCC=C)-c1cccc(CC)c1N(C)C2 [Compound 10c, 4-ethyl-5-methyl-8,9-diallyloxy-5,6-dihydro-phenanthridine] | > 100 | 16.3 ± 10.1 | –
C#CCOc1cc2c(cc1OCC#C)-c1cccc(CC)c1N(C)C2 [Compound 10d, 4-ethyl-5-methyl-8,9-diprop-2-ynyloxy-5,6-dihydro-phenanthridine] | 58.3 ± 2.1 | 0.83 ± 0.35 | –
CCc1cccc2c1N(C)Cc1cc(OCC3CCC3)c(OCC3CCC3)cc1-2 [Compound 10e, 4-ethyl-5-methyl-8,9-bis-cyclobutylmethoxy-5,6-dihydro-phenanthridine] | > 100 | 9.5 ± 2.71 | –
CCc1cccc2c1N(C)Cc1cc(OCC3CCCCC3)c(OCC3CCCCC3)cc1-2 [Compound 10f, 4-ethyl-5-methyl-8,9-bis-cyclohexylmethoxy-5,6-dihydro-phenanthridine] | > 100 | 10.8 ± 2.86 | –
CCc1cccc2c1N(C)Cc1cc(OCc3ccccc3)c(OCc3ccccc3)cc1-2 [Compound 10g, 4-ethyl-5-methyl-8,9-dibenzyloxy-5,6-dihydro-phenanthridine] | 30.2 ± 0.6 | 1.25 ± 0.56 | –
CCc1cccc2c1N(C)Cc1cc(OCc3cccc(OC)c3OC)c(OCc3cccc(OC)c3OC)cc1-2 [Compound 10h, 4-ethyl-5-methyl-8,9-di(2,3-dimethoxy)benzyloxy-5,6-dihydro-phenanthridine] | – | – | CC50 (Huh7.5 cells): > 100 µM; EC50 (HCV; 72 hrs, read-out: EC50): 4.32 ± 0.1 µM
CCc1cccc2c1N(C)Cc1cc(OC(C)=O)c(OC(C)=O)cc1-2 [Compound 10j, 4-ethyl-5-methyl-8,9-diacetoxy-5,6-dihydro-phenanthridine] | 90.1 ± 7.4 | 0.23 ± 0.08 | –
CCc1cccc2c1N(C)Cc1cc(OC(=O)C(C)C)c(OC(=O)C(C)C)cc1-2 [Compound 10l, 4-ethyl-5-methyl-8,9-diisobutyryloxy-5,6-dihydro-phenanthridine] | > 100 | 13.9 ± 11.4 | –
CCCCC(=O)Oc1cc2c(cc1OC(=O)CCCC)-c1cccc(CC)c1N(C)C2 [Compound 10m, 4-ethyl-5-methyl-8,9-divaleryoxy-5,6-dihydro-phenanthridine] | – | – | CC50 (Huh7.5 cells): > 100 µM; EC50 (HCV; 72 hrs, read-out: EC50): 9.39 ± 0.46 µM
CCc1cccc2c1N(C)Cc1cc(OC(=O)CC(C)C)c(OC(=O)CC(C)C)cc1-2 [Compound 10n, 4-ethyl-5-methyl-8,9-diisovaleroxy-5,6-dihydro-phenanthridine] | 50.3 ± 1 | 1.43 ± 0.45 | –
CCc1cccc2c1N(C)Cc1cc(OC(=O)c3ccccc3)c(OC(=O)c3ccccc3)cc1-2 [Compound 10o, 4-ethyl-5-methyl-8,9-dibenzoyloxy-5,6-dihydro-phenanthridine] | 91.5 ± 4.19 | 11 ± 2.23 | –
CCc1cccc2c1N(C)Cc1cc(OC(=O)c3ccc(Br)cc3)c(OC(=O)c3ccc(Br)cc3)cc1-2 [Compound 10p, 4-ethyl-5-methyl-8,9-di(4-bromo)benzoyloxy-5,6-dihydro-phenanthridine] | – | – | CC50 (Huh7.5 cells): > 100 µM; EC50 (HCV; 72 hrs, read-out: EC50): 1.19 ± 0.02 µM
CCc1cccc2c1N(C)Cc1cc(OCc3cn(CCNC(C)=O)nn3)c(OCc3cn(CCNC(C)=O)nn3)cc1-2 [Compound 10r, 4-ethyl-5-methyl-8,9-bis[1-(2-acetylamino-ethyl)-1H-[1,2,3]triazol-4-ylmethoxy]-5,6-dihydro-phenanthridine] | – | – | activation of the reporter gene systems of classical Wnt signaling pathway (Wnt signaling pathway): activate the reporter gene systems of classical Wnt signaling pathway; Concentration of compounds for doubly synergetic activating Wnt reporter gene (Wnt signaling pathway): 1.25 µM
C=Cc1cccc2c1N(C)Cc1cc(O)c(O)cc1-2 [Compound 11, 4-ethenyl-5-methyl-5,6-dihydrophenanthridine-8,9-diol] | > 100 | 8.37 ± 2.39 | –
C=CCOc1cc2c(cc1OCC=C)-c1cccc(C=C)c1N(C)C2 [Compound 11a, 4-ethenyl-5-methyl-8,9-diallyloxy-5,6-dihydro-phenanthridine] | > 100 | 28.8 ± 5.38 | –
C#CCOc1cc2c(cc1OCC#C)-c1cccc(C=C)c1N(C)C2 [Compound 11b, 4-ethenyl-5-methyl-8,9-di(prop-2-ynyloxy)-5,6-dihydro-phenanthridine] | > 100 | 4.2 ± 1.72 | –
C=Cc1cccc2c1N(C)Cc1cc(OCC3CCC3)c(OCC3CCC3)cc1-2 [Compound 11c, 4-ethenyl-5-methyl-8,9-bis-cyclobutylmethoxy-5,6-dihydro-phenanthridine] | > 100 | 11.3 ± 1.66 | –
C=Cc1cccc2c1N(C)Cc1cc(OCC3CCCCC3)c(OCC3CCCCC3)cc1-2 [Compound 11d, 4-ethenyl-5-methyl-8,9-bis-cyclohexylmethoxy-5,6-dihydro-phenanthridine] | > 100 | > 33.3 | –
C=Cc1cccc2c1N(C)Cc1cc(OCc3ccccc3)c(OCc3ccccc3)cc1-2 [Compound 11e, 4-ethenyl-5-methyl-8,9-dibenzyloxy-5,6-dihydro-phenanthridine] | > 100 | 13.4 ± 0.98 | –
C=Cc1cccc2c1N(C)Cc1cc(OC(C)=O)c(OC(C)=O)cc1-2 [Compound 11h, 4-ethenyl-5-methyl-8,9-diacetoxy-5,6-dihydro-phenanthridine] | > 100 | 1.63 ± 0.91 | –
C=Cc1cccc2c1N(C)Cc1cc(OC(=O)CC)c(OC(=O)CC)cc1-2 [Compound 11i, 4-ethenyl-5-methyl-8,9-dipropionyloxy-5,6-dihydro-phenanthridine] | > 100 | 1.02 ± 0.16 | –
C=Cc1cccc2c1N(C)Cc1cc(OC(=O)C(C)C)c(OC(=O)C(C)C)cc1-2 [Compound 11j, 4-ethenyl-5-methyl-8,9-diisobutyryloxy-5,6-dihydro-phenanthridine] | > 100 | 1.83 ± 0.17 | –
C=Cc1cccc2c1N(C)Cc1cc(OC(=O)CC(C)C)c(OC(=O)CC(C)C)cc1-2 [Compound 11l, 4-ethenyl-5-methyl-8,9-diisovaleroxy-5,6-dihydro-phenanthridine] | > 100 | 3.27 ± 1.26 | –
C=Cc1cccc2c1N(C)Cc1cc(OC(=O)c3ccccc3)c(OC(=O)c3ccccc3)cc1-2 [Compound 11m, 4-ethenyl-5-methyl-8,9-dibenzoyloxy-5,6-dihydro-phenanthridine] | > 100 | 1.03 ± 0.07 | –
C=Cc1cccc2c1N(C)Cc1cc(OCc3cn(CCN)nn3)c(OCc3cn(CCN)nn3)cc1-2 [Compound 11q, 4-ethenyl-5-methyl-8,9-bis[1-(2-amino-ethyl)-1H-[1,2,3]triazol-4-ylmethoxy]-5,6-dihydrophenanthridine] | – | – | activation of the reporter gene systems of classical Wnt signaling pathway (Wnt signaling pathway): activate the reporter gene systems of classical Wnt signaling pathway; Concentration of compounds for doubly synergetic activating Wnt reporter gene (Wnt signaling pathway): 2.5 µM
C=Cc1cccc2c1N(C)Cc1cc(OCc3cn(CCNC(C)=O)nn3)c(OCc3cn(CCNC(C)=O)nn3)cc1-2 [Compound 11r, 4-ethenyl-5-methyl-8,9-bis[1-(2-acetylamino-ethyl)-1H-[1,2,3]triazol-4-ylmethoxy]-5,6-dihydro-phenanthridine] | – | – | activation of the reporter gene systems of classical Wnt signaling pathway (Wnt signaling pathway): activate the reporter gene systems of classical Wnt signaling pathway; Concentration of compounds for doubly synergetic activating Wnt reporter gene (Wnt signaling pathway): 5 µM
